Reference: patent US9278902B2, “Crystal form of prostaglandin analogue, and preparation method and use thereof” (Shanghai Techwell Biopharmaceutical Co., Ltd., priority 2012, dated 2016)

Assays:
[1] = Stability test at 40° C., HPLC purity; assay type: physicochemical
Method: As used herein, “HPLC purity” refers to the percentage of the peak area of compound I obtained by area normalization method in the sum of all the peak area in HPLC detection applied to compound I, according to the obtained chromatogram.
(§1) Column: 4.6×250 mm 5 μm C18 column; flow rate: 2 ml/min; injection volume: 10 μl; column temperature: 35° C.; detection wavelength: 217 nm; mobile phase: acetonitrile/water/trifluoroacetic acid; Elution condition: water (60%): acetonitrile (40%): trifluoroacetic acid (0.1%); detection limit: 10 ng.
The purity mentioned in the following Examples is HPLC purity.
(§2) Compound I from example 2, example 3 and example 4 were obtained, and subjected to stability test at 40° C., respectively. […] Therefore, crystalline form B of compound I prepared by the method of the present invention has unique stability.

[2] = cited from earlier work
[3] = Storage stability of crystalline form B by HPLC (0° C., 20° C., 40° C.); assay type: physicochemical
Method: as §1, §2

CCCCC[C@H](O)CC[C@@H]1[C@H]2Cc3cccc(OCC(=O)O)c3C[C@H]2C[C@H]1O [Example 4]
Purity at 0 day (40° C.) ([1]; stability test at 40° C., 0 day (start)): 99.90% | Purity at 10 day (40° C.) ([1]; stored at 40° C., 10 day): 99.91% | Purity at 30 day (40° C.) ([1]; stored at 40° C., 30 day): 99.89% | Purity at 90 day (40° C.) ([1]; stored at 40° C., 90 day): 99.88%

CCCCC[C@H](O)CC[C@@H]1[C@H]2Cc3cccc(OCC(=O)O)c3C[C@H]2C[C@H]1O [Treprostinil]
Stability under physiological conditions [2]: stable

CCCCC[C@H](O)CC[C@@H]1[C@H]2Cc3cccc(OCC(=O)O)c3C[C@H]2C[C@H]1O [crystalline form B of compound I]
Degradation on storage (HPLC) ([3]; stored at 0° C. for 12 months): did not degrade at all | Degradation on storage (HPLC) ([3]; stored at 20° C. for 6 months): did not degrade at all | Degradation on storage (HPLC) ([3]; stored at 40° C. for 2 months): did not degrade at all
